According to patent publication US9790506B2, “Diagnostic and screening methods for atopic dermatitis” (The Regents of the University of California, priority 2013, dated 2017):
Ends that are not written are not given here.

Key:
[1] = test system: NFAT; test: NFAT translocation to the nucleus in keratinocytes (immunostaining); format: cell-based, human; details: for SLIGRL-induced NFAT nuclear translocation in the presence of inhibitor: SLIGRL 100 μM + 2APB 50 μM or CsA 1 μM, 30 min
Method: Histology Histology was carried out as previously described (Gerhold, 2013). Antibodies: rabbit anti-PGP9.5 and rabbit anti-peripherin (Millipore) 1:1000; goat anti-TSLPR and mouse anti-NFATcI (Santa Cruz Biotechnology) 1:100. IL7Rα and TSLPR probes (Panomics) were used for in situ hybridization following the Quantigene protocol (Panomics).
Following a rise in Ca^2+, NFAT is dephosphorylated by the Ca^2+-dependent phosphatase calcineurin and translocates from the cytosol to the nucleus to promote transcription of target genes (Rao et al., 1997).

[2] = test system: keratinocytes; test: ratiometric Ca^2+ imaging of keratinocytes; format: cell-based, human; details: for SLIGRL-evoked Ca^2+ influx / intracellular Ca^2+ response of keratinocytes: SLIGRL 100 μM; for SLIGRL-evoked Ca^2+ influx / tryptase-evoked Ca^2+ influx: 2 mM Ca^2+, 50 μM 2-APB, 50 nM La^3+; for tryptase-evoked Ca^2+ influx / intracellular Ca^2+ response of keratinocytes: tryptase 100 nM; for intracellular Ca^2+ response of keratinocytes: BAM8-22 2 μM
Method: (§1) Physiological Ringer solution: 140 mM NaCl, 5 mM KCl, 10 mM HEPES, 2 mM CaCl2, 2 mM MgCl2, 10 mM D-(+)-glucose, pH 7.4 with NaOH. Images were collected and analyzed using MetaFluor (Molecular Devices).

[3] = test system: DRG neurons; test: ratiometric Ca^2+ imaging of DRG neurons; format: cell-based, mouse; details: for Ca^2+ levels in TSLP-positive cells on subsequent exposure: AITC 200 μM, CAP 1 μM, all TSLP-positive cells; for overlap of the TSLP-sensitive population with the population sensitive to the compound: DRG neurons, FIG. 3D; for prevalence of TSLP-sensitive neurons / TSLP-evoked Ca^2+ signals after pre-treatment: neurons pre-treated with blocker versus vehicle
Method: as §1

[4] = test system: mice; test: mouse cheek model of itch (scratching behavior after intradermal injection); format: in vivo
Method: Mice and Behavior Mice (20-35 g) were housed in 12 h light-dark cycle at 21° C. […] For AITC behavior, 5 μL 10% AITC in mineral oil was applied to the right hind paw. Behavioral scoring was performed while blind to treatment and genotype. All experiments were performed under the policies and recommendations of the International Association for the Study of Pain and approved by the University of California, Berkeley Animal Care and Use Committee. […]

[5] = test system: keratinocytes; test: TSLP release from keratinocytes (ELISA); format: cell-based, human; details: 24 h treatment, tryptase 100 nM, SLIGRL 100 μM; for TSLP secretion: TG 1 μM, versus vehicle; for TSLP secretion in the absence of external Ca^2+: 0 Ca
Description: TSLP release was normalized to vehicle.

[6] = test system: TSLP transcripts; test: expression of TSLP transcripts in keratinocytes; format: cell-based, human; details: PAR2-evoked SOCE; 3 h treatment with SLIGRL 100 μM versus vehicle
Method: RT-PCR RNA was extracted using RNeasy (Qiagen) and reverse transcription was performed using Superscript III. RT-PCR was carried out using SYBR Green (Invitrogen) on a StepOnePlus ABI machine. Threshold cycles for each transcript (Bogiatzi et al.) were normalized to GAPDH (ACt). Calibrations and normalizations used the 2^−ΔΔCt method where ΔΔCt=[(Ct (target gene)−Ct (reference gene)]−[Ct (calibrator)−Ct (reference gene)]; GAPDH=reference gene; scrambled siRNA=calibrator. Experiments were performed in triplicate.

[7] = test system: keratinocytes; test: perforated-patch voltage-clamp recordings on keratinocytes; format: cell-based, human; details: SLIGRL 100 μM
Method: Electrophysiology Recordings were collected at 5 kHz and filtered at 2 kHz using an Axopatch 200B and PClamp software. Electrode resistances were 2-6 MΩ. Perforated patch internal solution: 140 mM CsCl, 5 mM EGTA, 10 mM HEPES, pH 7.4 with CsOH, 0.24 mg ml^−1 Amphotericin B (Rae et al., 1991). Stimulation protocol: 10 ms step to −80 mV, 150 ms ramp from −80 mV to +80 mV. Current clamp internal solution: 140 mM KCl, 5 mM EGTA and 10 mM HEPES (pH 7.4 with KOH). Series resistance of all cells were <30 MΩ, and liquid junction potentials were <5 mV (no correction).

[8] = test system: DRG neuron; test: current-clamp recording in DRG neuron; format: cell-based, mouse; details: subset of CAP-sensitive DRG neurons
[9] = target: T1, MrgprC11 (Mus musculus, UniProt Q8CIP3); test: Ca^2+ response in the presence or absence of the mouse BAM8-22 receptor MrgprC11; format: cell-based; details: tryptase 3 μM
T1 sequence (Q8CIP3 1-322): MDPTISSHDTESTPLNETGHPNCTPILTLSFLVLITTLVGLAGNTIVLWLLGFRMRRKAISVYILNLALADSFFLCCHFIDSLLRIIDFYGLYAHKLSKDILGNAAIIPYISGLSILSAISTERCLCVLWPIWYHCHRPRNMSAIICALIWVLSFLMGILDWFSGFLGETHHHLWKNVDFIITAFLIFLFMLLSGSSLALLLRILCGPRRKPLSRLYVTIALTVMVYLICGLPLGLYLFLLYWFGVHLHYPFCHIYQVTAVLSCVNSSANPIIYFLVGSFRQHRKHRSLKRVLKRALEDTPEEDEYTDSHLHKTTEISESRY
Method: FIG. 15. […] MrgprX1 was amplified from DRG, but not keratinocytes. MrgprX1 and GAPDH were amplified from RT-treated tissue but not from “no RT” controls. (B) Representative response to BAM8-22 (BAM, 2 μM) in human keratinocytes. (C) Representative response to tryptase (TRY, 3 μM) and BAM8-22 (BAM, 2 μM) in the presence or absence of the mouse BAM8-22 receptor, MrgprC11. (D) Left: representative traces showing a neuron that is sensitive to BAM8-22 (BAM) but not tryptase (TRY, blue), and a neuron that is sensitive to tryptase but not BAM8-22 (black). Right: quantification of the prevalence of tryptase-responsive (TRY, black), BAM8-22-responsive (blue, BAM), and tryptase- and BAM8-22-responsive neurons in mouse dorsal root ganglia. n≧500 cells. Data are represented as mean+/−SEM

NCCOB(c1ccccc1)c1ccccc1 [2-APB, 2-Aminoethoxydiphenyl borate]
SLIGRL-induced NFAT nuclear translocation in the presence of inhibitor [1]: attenuated | SLIGRL-induced NFAT nuclear translocation in the presence of inhibitor ([1]; listed as 2APB): prevented | SLIGRL-evoked Ca^2+ influx [2]: significantly attenuated | tryptase-evoked Ca^2+ influx [2]: significantly attenuated

C=CCN=C=S [AITC, allyl isothiocyanate]
Ca^2+ levels in TSLP-positive cells on subsequent exposure [3]: further increased

COc1cc(CNC(=O)CCCC/C=C/C(C)C)ccc1O [CAP, capsaicin]
Ca^2+ levels in TSLP-positive cells on subsequent exposure [3]: further increased

CCN(CC)CCCC(C)Nc1ccnc2cc(Cl)ccc12 (stereo not shown) [CQ, chloroquine]
overlap of the TSLP-sensitive population with the population sensitive to the compound [3]: 6%

[La+3] [La^3+, lanthanum]
SLIGRL-evoked Ca^2+ influx [2]: significantly attenuated | tryptase-evoked Ca^2+ influx [2]: significantly attenuated

C=C(C)[C@]12C[C@@H](C)[C@@]34O[C@](Cc5ccccc5)(O[C@@H]1[C@@H]3C=C(COC(=O)Cc1ccc(O)c(OC)c1)C[C@]1(O)C(=O)C(C)=C[C@@H]41)O2 [RTX, resiniferatoxin]
TSLP-evoked scratching after neuronal ablation ([4]; RTX-treated mice compared to control mice, RTX two days prior to pruritogen): significantly decreased

C/C=C(/C)C(=O)O[C@H]1C(C)=C2[C@H]([C@@H]1OC(=O)CCCCCCC)[C@@](C)(OC(C)=O)C[C@H](OC(=O)CCC)[C@@]1(O)[C@H]2OC(=O)[C@@]1(C)O [TG, thapsigargin]
TSLP secretion [5]: significant increase

COc1ccc2c(c1)CC[C@@H]1[C@@H]2CC[C@]2(C)[C@@H](NCCCCCCN3C(=O)C=CC3=O)CC[C@@H]12 [U73122, 1-[6-[[(17β)-3-Methoxyestra-1,3,5(10)-trien-17-yl]amino]hexyl]-1H-pyrrole-2,5-dione]
prevalence of TSLP-sensitive neurons / TSLP-evoked Ca^2+ signals after pre-treatment [3]: significantly reduced | TSLP-evoked scratching after intradermal injection of PLC blocker ([4]; 30 min preinjection, versus vehicle, scratching quantified for 20 min): significantly attenuated | CQ-evoked scratching after intradermal injection of PLC blocker ([4]; preinjection, versus vehicle): normal

O=C1OC2(c3ccccc31)c1ccc(O)c(O)c1Oc1c2ccc(O)c1O [gallein]
prevalence of TSLP-sensitive neurons / TSLP-evoked Ca^2+ signals after pre-treatment [3]: no effect

NCCc1c[nH]cn1 [histamine]
overlap of the TSLP-sensitive population with the population sensitive to the compound [3]: 6%

N.N.N.N.N.N.N.N.N.N.N.N.N.N.[Cl-].[Cl-].[Cl-].[Cl-].[Cl-].[Cl-].[O-2].[O-2].[Ru+3].[Ru+3].[Ru+4] [ruthenium red]
neuronal sensitivity to TSLP after TRPV1 and TRPA1 inhibition ([3]; 20 μM ruthenium red): significantly decreased

SLIGRL [widely used PAR2 ligand mimetic]
NFAT translocation to the nucleus ([1]; SLIGRL 100 μM for 30 minutes): induced robust NFAT translocation | expression of TSLP transcripts [6]: robustly increased | intracellular Ca^2+ response of keratinocytes [2]: evoked a rise in intracellular Ca^2+ | reversal potential of SLIGRL-evoked currents [7]: no measurable reversal potentials below +80 mV | SLIGRL-evoked currents ([7]; dependent on extracellular Ca^2+, inwardly-rectifying): triggered an ORAI1/2-like current | TSLP secretion [5]: robust secretion | TSLP secretion in the absence of external Ca^2+ [5]: not observed

TSLP: AD cytokine released from keratinocytes; injected as pruritogen, acts on TSLPR-positive sensory neurons
DRG neurons showing robust increases in intracellular Ca^2+ ([3]; TSLP application (2 ng/mL), wild-type neurons): 4.1±0.6% | source of TSLP-evoked Ca^2+ signal in sensory neurons ([3]; absence (0 mM) and presence (2 mM) of extracellular Ca^2+): triggers both release of Ca^2+ from intracellular stores, and subsequent Ca^2+ influx | evoked Ca^2+ signaling abolished in IL7Rα-deficient neurons ([3]; neurons isolated from IL7Rα-deficient mice): abolished | TSLP-evoked Ca^2+ signals in TRPA1-deficient neurons ([3]; versus wild type littermates): significantly attenuated | action potential firing [8]: triggered action potential firing | TSLP-evoked itch behaviors in strains lacking T and B cells or mast cells ([4]; RAG1−/−, NOD SCID, Kit(W-sh) mice, no significant differences to wild type littermates): robust itch behaviors | time after injection at which robust itch behaviors were observed ([4]; TSLP injection): ≤ 5 min | wiping (pain behavior) ([4]; TSLP injection into the cheek of wild type mice): never observed | latency to scratch ([4]; TSLP injection into the cheek of wild type mice (2.5 μg/20 μl)): 4.1 ± 0.3 min | itch-evoked scratching ([4]; TSLP injection into the cheek of wild type mice, versus vehicle): evoked robust scratching | TSLP-evoked scratching in TRPA1-deficient mice ([4]; cheek injection 2.5 μg/10 μL): abolished | TSLP-evoked scratching in TRPV1-deficient mice ([4]; cheek injection 2.5 μg/10 μL): normal | TSLP-evoked scratching in IL7Rα-deficient mice ([4]; cheek injection, versus wild type): significantly attenuated

VGRPEWWMDYQKRYG [BAM8-22, MrgprX1-specific ligand, endogenous pruritogen]
overlap of the TSLP-sensitive population with the population sensitive to the compound [3]: 0% | intracellular Ca^2+ response of keratinocytes [2]: insensitive

tryptase: endogenous PAR2 agonist
activation of MrgprC11 [9]: does not activate | intracellular Ca^2+ response of keratinocytes [2]: evoked a rise in intracellular Ca^2+ | tryptase-evoked itch in IL7Rα-deficient mice ([4]; cheek 100 μg/20 μL): significantly attenuated | tryptase-evoked itch in PAR2-deficient mice ([4]; cheek 100 μg/20 μL): significantly attenuated | tryptase-evoked itch behaviors ([4]; wild type mice, cheek 100 μg/20 μL, scratching quantified for 1 h): induced robust itch behaviors | TSLP secretion [5]: robust secretion | TSLP secretion in the absence of external Ca^2+ [5]: not observed
